According to US9458194B2, “Compounds useful in the treatment and/or care of the skin and their cosmetic or pharmaceutical compositions” (Lubrizol Advanced Materials, Inc., priority 2013, dated 2016):

Legend:
Type in all cases: cell-based
[1] = tested on: elastin; experiment: Elastin synthesis in human dermal fibroblasts (Fastin Elastin Assay); details: positive control, 10 ng/mL, 48 hours, vs negative control
Method: Stimulation of elastin synthesis induced by Ac-L-Asp-L-Val-L-Lys-L-Tyr-OH was evaluated by means of a quantitative method of staining, Fastin Elastin Assay (Tebu-Bio). Human dermal fibroblasts were trypsinized and seeded at a density of 7×10^4 cells/well in 6-well plates. After 72 hours of incubation at 37° C., 5% CO2, with a humidified atmosphere, a new medium was added with 0.01 μg/mL Ac-L-Asp-L-Val-L-Lys-L-Tyr-OH. Untreated cells were used as negative controls and cells treated with TGF-1β (Peprotech) were used as positive controls. The cells were incubated for an additional 48 hours at 37° C., 5% CO2, with humidified atmosphere. Subsequently, the elastin was solubilized and extracted, for which the cells were washed twice with PBS (Sigma) and a solution was added to uncouple the cells (Cell Dissociation Solution, Sigma). The suspension of cells was transferred to centrifuge tubes, 1 M Oxalic Acid was added provided by the kit and they were incubated at 100° C. for 1 hour. Once the elastin became soluble, a calibration curve was prepared with the elastin provided with the kit. From that point, the samples and dilutions of the calibration curve were processed following the kit instructions to isolate and stain the elastin. Lastly, the dye was extracted and the absorbency reading was carried out at a wave length of 540 nm in a TECAN GENios spectrophotometric reader.

[2] = tested on: LOXL1; experiment: Immunofluorescence of LOXL1 protein expression in human dermal fibroblasts; details: 48 hours, HDFa
Method: (§1) In this experiment the number of times that the expression of the proteins fibulin-5 and LOXL1 in human dermal fibroblasts is increased with regard to the basal levels in untreated cells (negative control) when treating the cells with 0.5 mg/ml of the product Ac-L-Asp-L-Val-L-Lys-L-Tyr-OH and it is compared with the effect of Interleukin-1β (IL-1β) at 20 ng/ml and TGF-β at 5 ng/ml (positive controls), which increase an average of 1.5 times and 2 times, respectively, the expression of these proteins, in the same conditions.
Adult human dermal fibroblasts were seeded (HDFa) (2.5×10^3 cells/well) in a 96-well transparent plate, treated with polylysine, and were incubated in complete medium 106 for 72 hours at 37° C. in an atmosphere with 5% CO2. After the incubation, the cells were treated with the different compounds in complete medium 106 for 48 hours at 37° C. in an atmosphere with 5% CO2. As positive controls of increase of the expression of the proteins fibulin-5 and LOXL1, 5 ng/ml of TGF-β and 20 ng/ml of IL-1β were used and as a negative control untreated cells were used, just with complete medium 106. The incubations and the treatments were carried out in quadruplicate for each condition. After the treatment, the levels of expression of both proteins were quantified relatively by using specific fluorescent antibodies, photographic recording by microscopy and subsequent quantification of the fluorescent signal using image processing software, the number of total cells by fluorescent staining of the nuclei (DAPI) and subsequent quantification in the same images. […] 16 hours later all the samples were stained with DAPI (4′,6-Diamidino-2-Phenylindole), fluorescent marker for the staining of nuclei, and the photographic recording was carried out by fluorescence microscopy in a Leica microscope. 2-4 images were taken per condition and per protein and the fluorescent signals were quantified (IOD) corresponding to each protein and the nuclei by means of image analysis software. […]

[3] = tested on: human LOXL1 gene promoter; experiment: Luminescence assay of human LOXL1 gene promoter activation (Renilla luciferase); details: positive control, 10 ng/mL
Method: (§2) The effect of the compounds of the invention on the activity of the fibulin-5 and LOXL1 promoters was studied and compared to the levels of basal expression of the untreated cells (negative control) and with the effect of Interleukin-1β (IL-1β) in the same conditions.
(§3) Cells from an epithelial cell line doubly transfected with fibulin-5 and LOXL1 human promoters in which the luciferase gene is under the regulatory control of said promoters (4×10^4 cells/well) were seeded in a white plate and in a 96-well transparent plate, both treated with polylysine, and were incubated in Dulbecco's Modified Eagle Medium (DMEM-Glutamax™), with 10% of FBS, 1% Penicillin-Streptomycin (P/S), 1 mg/ml of Geneticin® (G418) and […] at 37° C. in at atmosphere with 5% CO2. After the incubation, the cells were incubated for 6 hours at 37° C. in at atmosphere with 5% CO2 with DMEM without serum. Then, this medium was removed and the cells were treated with different compounds at 0.1 mg/ml, 0.5 mg/ml, 1 mg/ml or 2 mg/mL in DMEM/1% FBS for 16-24 hours. As a positive control to activate the fibulin-5 and LOXL1 promoters 10 ng/ml of IL-1β were used and as a negative control untreated cells were used, just with DMEM/1% FBS. The incubations and treatments were carried out in parallel in the white plate and the transparent plate and in triplicate for each condition. After the treatment, the relative light units per second were determined (RLU/s) in the white plate by means of consecutive quantification of the activities of Firefly luciferase (fibulin-5 promoter) and Renilla luciferase (LOXL1 promoter), and the number of total cells/well in the transparent plate by means of staining with Crystal Violet (CV). To determine the Firefly and Renilla luciferase activities the Dual-Glo Luciferase Assay System kit by Promega was used. The cells were briefly lysed and the Firefly luciferase substrate was added. After incubating for 10 min at 25° C., the RLU/s were quantified by luminescence reader (Lumistar-BMG). Then the Firefly signal was extinguished and the Renilla luciferase substrate was added. After incubating for 5 min at 25° C., the RLU/s were quantified by the same luminescence reader. With regard to the determination of the total number of cells by Crystal Violet, the CV dyes the DNA of the cells and the quantity of dye taken by the cells can be measured in an absorbency reader at 630 nm (Multiskan Ascent). The color obtained is directly proportional to the total number of cells per well. The cells were briefly incubated with 0.05% CV plus 4% Formalin for 20 minutes and after several washes with Milli-Q water, the cells were left to dry for 1-2 hours and then 0.1 M of HCl was added for its immediate reading. The RLU/s of the luciferases corresponding to each promoter were normalized by the average of the total number of cells per condition. Three independent assays with 3 measurements per assay were carried out for Ac-L-Asp-L-Val-L-Lys-L-Tyr-OH at 0.1 mg/mL and 1 mg/mL. 1 assay with 3 measurements was carried out for the other compounds and concentrations.
(§4) The increase in the activity of the promoters with regard to the levels of expression of the negative control was determined.

[4] = tested on: human fibulin-5 gene promoter; experiment: Luminescence assay of human fibulin-5 gene promoter activation (Firefly luciferase); details: positive control, 10 ng/mL
Method: as §2, §3, §4

[5] = tested on: fibulin-5; experiment: Immunofluorescence of fibulin-5 protein expression in human dermal fibroblasts; details: for Increase in the expression of the protein fibulin-5 with regard to the negative control: 48 hours, HDFa; for Average increase of the expression of the proteins fibulin-5 and LOXL1: positive control, average for both proteins
Method: as §1
Adult human dermal fibroblasts were seeded (HDFa) (2.5×10^3 cells/well) in a 96-well transparent plate, treated with polylysine, and were incubated in complete medium 106 for 72 hours at 37° C. in an atmosphere with 5% CO2. After the incubation, the cells were treated with the different compounds in complete medium 106 for 48 hours at 37° C. in an atmosphere with 5% CO2. As positive controls of increase of the expression of the proteins fibulin-5 and LOXL1, 5 ng/ml of TGF-β and 20 ng/ml of IL-1β were used and as a negative control untreated cells were used, just with complete medium 106. The incubations and the treatments were carried out in quadruplicate for each condition. After the treatment, the levels of expression of both proteins were quantified relatively by using specific fluorescent antibodies, photographic recording by microscopy and subsequent quantification of the fluorescent signal using image processing software, the number of total cells by fluorescent staining of the nuclei (DAPI) and subsequent quantification in the same images. For the determination of the expression of the proteins fibulin-5 and LOXL1 the cells were washed with PBS 48 hours after the treatments and were fixed with paraformaldehyde. Next, duplicates of each treatment were used to mark separately the fibulin-5 and LOXL1 proteins. For each of the proteins a specific primary monoclonal antibody was used (Abcam). After the primary incubation, the cells were washed with PBS and the secondary marking was carried out with specific fluorescent polyclonal antibodies for each primary antibody. For fibulin-5 an Alexa Fluor® 594 (red) secondary antibody was used and for LOXL1 an Alexa Fluor® 488 (green) secondary antibody was used. 16 hours later all the samples were stained with DAPI (4′,6-Diamidino-2-Phenylindole), fluorescent marker for the staining of nuclei, and the photographic recording was carried out by fluorescence microscopy in a Leica microscope. 2-4 images were taken per condition and per protein and the fluorescent signals were quantified (IOD) corresponding to each protein and the nuclei by means of image analysis software. The fibulin-5 and LOXL1 signals were normalized according to the number of total nuclei for each image. 3 independent assays were carried out.

## TGF-1β: TGF-1β (Peprotech), positive control in the elastin synthesis assay [reference compound]
[1]
  INCREASE IN ELASTIN SYNTHESIS: 35.6%

## IL-1β: Interleukin-1β, positive control to activate the fibulin-5 and LOXL1 promoters and increase expression of the proteins [reference compound]
[2]; 20 ng/mL
  Increase in the expression of the protein LOXL1 with regard to the negative control: 87.50%
[3]
  Increase in the activity of the human promoter of the LOXL1 gene with regard to the negative control: 156.26%
[4]
  Increase in the activity of the human promoter of the FIBULIN 5 gene with regard to the negative control: 80.40%
[5]; 20 ng/mL
  Increase in the expression of the protein fibulin-5 with regard to the negative control: 42.07%
[5]; 20 ng/ml
  Average increase of the expression of the proteins fibulin-5 and LOXL1: 1.5 times

## TGF-β
[2]; 5 ng/mL
  Increase in the expression of the protein LOXL1 with regard to the negative control: 45.93%
[5]; 5 ng/mL
  Increase in the expression of the protein fibulin-5 with regard to the negative control: 147.72%
[5]; 5 ng/ml
  Average increase of the expression of the proteins fibulin-5 and LOXL1: 2 times
